Laboratory results from ChEMBL document CHEMBL6103575, “Design, synthesis and evaluation of (E)-1-(4-(2-(1H-pyrazol-5-yl)vinyl)phenyl) derivatives as next generation selective RET inhibitors overcoming RET solvent front mutations (G810C/R)” (Eur J Med Chem, 2025).

What was measured:
[1] = Induction of apoptosis in mouse BaF3 cells harboring CCDC6-RET G810C mutant assessed as late apoptotic cells at 30 nM incubated for 48 hrs by Annexin V-PE staining based flow cytometry analysis (Rvb =4.30%); format: functional
[2] = Induction of apoptosis in mouse BaF3 cells harboring CCDC6-RET G810C mutant assessed as necrotic cells at 100 nM incubated for 48 hrs by Annexin V-PE staining based flow cytometry analysis (Rvb =0.48%); format: functional
[3] = Induction of cell cycle arrest in mouse BaF3 cells harboring CCDC6-RET G810R mutant assessed as accumulation of cells at G2/M phase at 30 nM incubated for 24 hrs by propidium iodide staining based analysis (reference value: 33.61%); format: functional
[4] = Induction of apoptosis in mouse BaF3 cells harboring CCDC6-RET assessed as early apoptotic cells at 30 nM incubated for 48 hrs by Annexin V-PE staining based flow cytometry analysis (Rvb =6.21%); format: functional
[5] = Induction of apoptosis in mouse BaF3 cells harboring CCDC6-RET G810R mutant assessed as necrotic cells at 10 nM incubated for 48 hrs by Annexin V-PE staining based flow cytometry analysis (Rvb =0.30%); format: functional
[6] = tested on: Proto-oncogene tyrosine-protein kinase receptor Ret (Homo sapiens), P07949 [G810C]; assay: Inhibition of RET (unknown origin) G810C mutant at 1 uM relative to control
[7] = molecular target: Proto-oncogene tyrosine-protein kinase receptor Ret (Homo sapiens, UniProt P07949, V804M); assay: Inhibition of RET (unknown origin) V804M mutant
[8] = Induction of apoptosis in mouse BaF3 cells harboring CCDC6-RET G810R mutant assessed as late apoptotic cells at 300 nM incubated for 48 hrs by Annexin V-PE staining based flow cytometry analysis (Rvb =3.21%); format: functional

Sequence of Proto-oncogene tyrosine-protein kinase receptor Ret (P07949 29-1114 V804M limits assumed): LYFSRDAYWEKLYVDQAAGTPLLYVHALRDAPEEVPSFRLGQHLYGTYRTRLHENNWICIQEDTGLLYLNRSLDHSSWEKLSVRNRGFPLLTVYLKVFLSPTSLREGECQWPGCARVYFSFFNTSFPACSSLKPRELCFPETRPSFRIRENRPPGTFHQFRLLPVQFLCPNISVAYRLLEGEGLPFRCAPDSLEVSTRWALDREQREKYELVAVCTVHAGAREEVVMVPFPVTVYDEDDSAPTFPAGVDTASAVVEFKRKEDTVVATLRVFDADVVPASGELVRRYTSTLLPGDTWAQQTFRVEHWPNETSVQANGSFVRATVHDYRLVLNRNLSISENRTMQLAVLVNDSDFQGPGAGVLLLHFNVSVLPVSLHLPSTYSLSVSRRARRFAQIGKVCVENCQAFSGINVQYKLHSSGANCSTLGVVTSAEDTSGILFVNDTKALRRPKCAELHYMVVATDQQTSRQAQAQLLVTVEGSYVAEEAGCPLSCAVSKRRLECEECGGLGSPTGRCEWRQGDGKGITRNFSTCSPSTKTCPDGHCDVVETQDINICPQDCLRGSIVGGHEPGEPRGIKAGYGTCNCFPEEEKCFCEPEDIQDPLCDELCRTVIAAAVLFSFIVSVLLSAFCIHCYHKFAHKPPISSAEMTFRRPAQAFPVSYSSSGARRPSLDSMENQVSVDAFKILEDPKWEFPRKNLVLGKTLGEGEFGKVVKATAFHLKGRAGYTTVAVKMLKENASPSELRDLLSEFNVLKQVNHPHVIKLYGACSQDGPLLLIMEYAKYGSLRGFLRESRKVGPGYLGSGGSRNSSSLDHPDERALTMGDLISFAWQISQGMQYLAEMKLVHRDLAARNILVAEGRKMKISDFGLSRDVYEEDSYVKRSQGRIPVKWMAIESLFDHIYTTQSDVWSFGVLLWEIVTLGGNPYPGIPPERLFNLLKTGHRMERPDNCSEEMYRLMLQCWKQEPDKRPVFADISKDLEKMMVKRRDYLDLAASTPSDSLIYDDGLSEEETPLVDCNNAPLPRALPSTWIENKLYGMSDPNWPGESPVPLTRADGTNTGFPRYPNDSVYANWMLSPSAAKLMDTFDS
Sequence of Proto-oncogene tyrosine-protein kinase receptor Ret (Homo sapiens), P07949 [G810C] (P07949 whole entry G810C): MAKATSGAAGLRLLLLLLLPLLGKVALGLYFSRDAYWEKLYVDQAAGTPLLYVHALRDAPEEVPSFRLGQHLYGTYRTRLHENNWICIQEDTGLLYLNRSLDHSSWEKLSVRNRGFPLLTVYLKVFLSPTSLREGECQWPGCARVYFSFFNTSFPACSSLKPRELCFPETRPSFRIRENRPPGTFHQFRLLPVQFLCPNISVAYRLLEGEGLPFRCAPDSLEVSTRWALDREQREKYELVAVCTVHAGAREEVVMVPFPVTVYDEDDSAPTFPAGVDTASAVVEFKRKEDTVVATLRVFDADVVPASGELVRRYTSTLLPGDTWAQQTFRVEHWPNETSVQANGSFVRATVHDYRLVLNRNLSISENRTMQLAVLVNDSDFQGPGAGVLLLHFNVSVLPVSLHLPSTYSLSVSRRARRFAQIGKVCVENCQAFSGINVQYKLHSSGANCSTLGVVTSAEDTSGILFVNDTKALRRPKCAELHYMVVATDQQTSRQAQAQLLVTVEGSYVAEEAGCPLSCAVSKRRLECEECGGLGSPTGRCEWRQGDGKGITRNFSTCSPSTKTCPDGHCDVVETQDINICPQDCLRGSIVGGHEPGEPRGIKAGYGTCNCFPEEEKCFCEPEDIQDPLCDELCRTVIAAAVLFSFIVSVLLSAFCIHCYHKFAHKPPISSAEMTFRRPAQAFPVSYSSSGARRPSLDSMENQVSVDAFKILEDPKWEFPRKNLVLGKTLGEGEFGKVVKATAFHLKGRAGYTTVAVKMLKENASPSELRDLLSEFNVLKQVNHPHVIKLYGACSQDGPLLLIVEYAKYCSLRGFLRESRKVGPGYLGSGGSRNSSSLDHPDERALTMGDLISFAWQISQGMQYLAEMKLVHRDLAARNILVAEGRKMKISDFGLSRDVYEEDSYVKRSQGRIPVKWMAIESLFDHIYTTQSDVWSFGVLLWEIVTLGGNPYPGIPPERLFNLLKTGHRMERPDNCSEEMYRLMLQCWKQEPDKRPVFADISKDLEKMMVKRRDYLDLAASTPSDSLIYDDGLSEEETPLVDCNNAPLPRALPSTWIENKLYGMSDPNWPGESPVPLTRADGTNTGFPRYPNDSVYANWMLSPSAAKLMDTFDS

inhibition [6]: 102%
IC50 [7]: 162 nM
Compound: COc1cncc(-c2cn[nH]c2/C=C/c2ccc(NC(=O)Nc3cc(C(C)(C)C(F)(F)F)on3)c(Cl)c2)c1
Activity [1]: 3.57%
Activity [2]: 0.24%
Activity [3]: 32.17%
Activity [4]: 22.34%
Activity [5]: 0.17%
Activity [8]: 9.06%
